This passage reports melting point results from a melting point compilation (Tetko et al.).

The term melting point denotes the temperature, or range, at which the solid turns liquid. On to `O=S(=O)(c1ccccc1)n1cc(Br)c2ccccc21`, for which the melting point fell in the range of 120 to 121 °C.

For `CC(=O)Nc1ccc(C(F)(F)F)cc1Br`, the melting point was 144 to 146 °C.

The compound `C1#CCOCc2ccccc2COCC#CCOCc2ccccc2COC1` displayed a melting point of 130 °C.

The compound `C=CCOC(=O)N1CCN(C(=O)OCC2c3ccccc3-c3ccccc32)C(C(=O)O)C1` (stereo not drawn) came in with a melting point of 63 °C.

In turn, `Cc1ccc(NO)cc1` registered a melting point of 96 °C.

With `O=C=Nc1cccs1`, the melting point lay within 108 to 110 °C.

`C=CCNC(SC)=C(C#N)C#N` returned a melting point of 91 °C.

`CCOC(=O)Nc1ccc2cc3ccc(N)c(CO)c3nc2c1` registered a melting point of 135 °C.

`CSc1nc(N)nc(C2CC2)n1` returned a melting point of 157 to 159 °C.

In turn, `O=S(=O)(Cl)c1ccccc1Br` showed a melting point of 50 to 51 °C.

`Brc1cccc2c1Oc1cccc(Br)c1O2` yielded a melting point of 207 °C.

`O=Cc1c(F)cc(F)cc1F` came in with a melting point of 66 °C.

The compound `NS(=O)(=O)c1cc2c(s1)S(=O)(=O)CCC2=O` had a melting point of 242 °C.

`Fc1cccc(C(F)(F)F)c1CBr` showed a melting point of 44 °C.

`CC(C)(C)OC(=O)NC(=O)OC(C)(C)C` yielded a melting point of 114 to 117 °C.

Consider `Nc1c2ccccc2nc2ccccc12`, for which the melting point is 241 °C.

Consider `COc1ccc(C(=O)/C=C(\C)c2ccc(OC)cc2)cc1`, for which the melting point lay in the range of 86 to 87 °C.

Regarding `Brc1cc(Br)ncn1`, the melting point is 51 °C.

As to `CS(=O)(=O)Oc1ccccc1`, the melting point was in the range of 62 to 63 °C.

Compound `Clc1cccc2cccnc12` showed a melting point of -20 °C.

Regarding `CC(CO)C1=C(O)C(=O)C2=C(CC(O)C3C(C)(C)CCCC23C)C1=O` (stereo not drawn), the melting point worked out at 186 °C.

Take `O=[N+]([O-])c1ccc(C=NO)o1`: the melting point amounted to 163 °C.

With `CCOC(=O)CNC(=O)c1cn(CC)c2nc(C)ccc2c1=O`, the melting point stood at 198 °C.

`CSc1nc(N)nc(-c2cccs2)n1` came in with a melting point of 176 to 177 °C.

In the case of `O=c1n(-c2ccccc2)c(=O)n(-c2ccccc2)c(=O)n1-c1ccccc1`, the melting point was 285 °C.

In turn, `NC(=S)Nc1ccc(C(F)(F)F)cc1` had a melting point of 144 to 145 °C.

`Nc1nn2c(C(F)(F)F)cc(=O)[nH]c2c1/N=N/c1ccc(S(=O)(=O)O)cc1` came in with a melting point of 292 °C.

On to `Cc1ccc(S(C)(=O)=O)cc1`, for which the melting point is 88 °C.

Regarding `O=C1/C(=N\Nc2cccc([N+](=O)[O-])c2)C(C(F)(F)F)=NN1c1ccccc1`, the melting point stood at 150 °C.

Regarding `CC(=O)C1(C)CCC2C3CCC4=CC(=O)CCC4=C3CCC21C` (stereo not drawn), the melting point amounted to 106 °C.

Regarding `CCCCCCN(CCCCCC)C1=NC(=Cc2ccccc2)C(=O)N1c1ccccc1`, the melting point turned out to be 76 °C.

`CN(C)c1ccc(/C=N/n2c(S)nnc2C(F)(F)F)cc1` returned a melting point of 200 °C.

Consider `CC(=O)OCC1=CC2CC(=O)C3=COC(OC4OC(CO)C(O)C(O)C4O)C1C32` (stereo not drawn), for which the melting point worked out at 128 °C.

`CC(C)(C)C(=O)C1C(=O)c2ccccc2C1=O` showed a melting point of 109 °C.

Turning to `CC1(O)CSC(C)(O)CS1` (stereo not drawn), the melting point fell in the range of 64 to 65 °C.

Take `O=Cc1ccc(OCC(=O)O)cc1`: the melting point was found to be 198 °C.

Regarding `CC1(C)OC(=O)C1(C)C`, the melting point came to 132 °C.

The compound `O=C(CC(C(=O)c1ccccc1)C(CC(=O)c1ccccc1)C(=O)c1ccccc1)c1ccccc1` (stereo not drawn) came in with a melting point of 169 °C.

For `O=C(O)c1ccsc1Br`, the melting point was in the range of 174 to 175 °C.

In the case of `CC1=Cc2ccccc2C1`, the melting point stood at 80 °C.

For the compound `CSCCC(NS(=O)(=O)c1ccc(C)cc1)C(=O)O` (racemic), the melting point fell in the range of 105 to 108 °C.

Compound `O=Cc1cc(F)ccc1[N+](=O)[O-]` displayed a melting point of 94.5 °C.

`CC(=O)N1CCc2ccccc21` yielded a melting point of 102 to 104 °C.
